Our source for the IC50 values is patent US8674113B2, “Compounds” (Boehringer Ingelheim International GmbH, priority 2010, dated 2014).

For one test, the target named is mPGES-1 in A549 cells (Homo sapiens (Human), UniProt O14684). Put plainly: A549 cell-based assay (PGE2 formation, 50% human serum). As for the experimental part:
Although the enzymatic assay is a high throughput assay the disadvantage is that it uses a recombinant protein which is not in its natural environment. Accordingly a cellular assay was established in which a cell line of human origin (A549) expressing the mPGES-1 protein was used. In addition in order to mimic the situation in humans in which compounds can be bound to plasma proteins 50% human serum is added in the assay.
A549 cells (ATCC: CCL-185) are grown to about 90% confluence in F-12K Nutrient Mixture (Kaighn's Mod. Gibco) containing 10% FBS in a humified incubator at 37° C. and 5% CO2. Cells were detached using Trypsin-EDTA. A549 cells were seeded in a 384-well collagene plate at a density of 7000 cells/well (50 μl) in F-12 medium containing 1% Penicillin-Streptomycin and 50% human serum. The cells were allowed to attach for 3-4 h. After that the cells were incubated for 20-24 h in F-12k medium supplemented with 50% human serum, 1% Penicillin-Streptomycin and containing IL-1β at a final concentration of 5 ng/ml as well as 10 nM arachidonic acid in the presence of a vehicle or a test compound. The total volume is 100 μl.
Concentrations of PGE2 in the cell free medium (10 μl) were measured using a commercially available HTRF kit from Cisbio (as described above). The PGE2 formation in the absence of test compound was taken as 100%.
IC50 values were derived from at 6-8 point titrations using conventional software.

The target of test [1] is recombinant human mPGES-1 (Homo sapiens (Human), UniProt O14684). Put plainly: mPGES-1 enzyme assay (HTRF detection of PGE2). The format is biochemical. How it is done:
Microsomes from Rosetta E. coli bacteria expressing recombinant human mPGES-1 can be derived as described below:
Inoculate 5 ml LB with Ampicilin (50 μg/ml) and Chloramphenicol (34 μg/ml) with bacteria from freeze culture. Incubate 8 h at 37° C. with 200 rpm. Thereafter, inoculate 500-1000 ml LB containing Amp and Chloro with the 5 ml on culture and grow to OD640 of 0.8-1.0. Chill the culture to +4° C. before induction. Induce the culture with IPTG at a final concentration of 400 μM. Express the protein at room temp 18-23° C. with 200 rpm shaking over night.
The following steps can be performed on the following day: • 1. Spin down the cells in 250 ml centrifuge flasks for 15 min at 7000 rpm (Beckmann Coulte Avanti J-E centrifuge) • 2. Dissolve the pellet from 250 ml culture in 12.5 ml homogenization buffer • 3. (15 mM Tris-HCL pH8, 1 mM EDTA pH8, […], 2.5 mM GSH, 1 Tablet Protease inhibitor per 50 ml buffer) • 4. Disintegrate the cells by sonication, 5×10 seconds at 48% amplitude of a 750 W sonifier • 5. Add 2.5 ml MgCl2 (100 mM) and DNase 12.5 μl (0.8 mg/ml) and incubate on ice for 30 min • 6. Spin down the bacteria debris and save the supernatant, 7000 rpm for 15 min • 7. Isolate the protein containing membranes in the supernatant by ultracentrifugation 120000×g for 2 hour at 4° C. (Sorvall T880 rotor). • 8. Discard the supernatant and dissolve the pellet in 20 mM Potassium phosphate buffer pH7.4 (KH2PO4 and K2HPO4) buffer by sonication (5×10 s, 30% of a 50 W sonifier) and aliquot the enzyme and store aliquots at −80° C.
Before each experiment is performed an aliquot of the enzyme is thawed and it can then be dissolved in 0.1 M Potassium phosphate buffer pH7.4 (KH2PO4 and K2HPO4) buffer containing 2.5 mM GSH.
The aim of this assay is to determine the affinity of a test compound for the mPGES-1 enzyme.
47 μl of recombinant human mPGES-1 (˜0.5 μg protein/well) containing microsomal suspension in a buffer containing GSH, (2.5 mmol/L L-Glutathione reduced, dissolved in 0.1 mol/L Phosphat Buffer pH 7.4) is dispensed in a 384-well plate and thereafter 1 μl of the test compound(s) is/are added and incubated for 25 minutes at room temperature. The enzyme reaction is started by the addition of 2 ul PGH2 (final conc 2 μM) disolved in water-free Diglyme. After 60 seconds the reaction is terminated by addition of a stop solution containing FeCl2 (10 μL 0.074 mol/l FeCl2). The samples are diluted between 1:25 in PBS (Phosphate Buffered Saline). 10 μl of the diluted samples are transferred to 384-well low volume plate. In order to quantify the amount of PGE2 that has been formed, a homogenous time resolved fluorescent (HTRF) detecting of PGE2 has been performed using a commercially available kit from Cisbio according to the manufactures recommendation. This HTRF-based assay has been described in detail (see: Goedken et al., J Biomol Screen, 2008, 13(7), 619-625). Briefly, the diluted samples are mixed with 5 μl PGE2-d2 conjugate and 5 μl anti-PGE2 cryptate conjugate. After an incubation period of the plates over night, the fluorescence is measured by the use of an appropriate microplate reader.
The fluorescence of Europium cryptate (maxex=307 nm, maxem=620 nm) and d2-PGE2 (maxex=620 nm, maxem=665 nm) are measured.
The extent of the specific HTRF is measured as a ratio of the emission intensity at 665 nm vs. that at 620 nm at an excitation puts of 320 nm. The quantification plate contains also wells with different concentrations of PGE2 as calibration curve for the calculation of the PGE2 concentrations from the HTRF ratio values.
From all mPGES enzyme assay the background is subtracted and the IC50 is calculated over a nonlinear regression with conventional software.

[2] abbreviates: IL-1β 5 ng/ml, 10 nM arachidonic acid, 20-24 h, read-out: mPGES-1 inhibitory effect IC50 in the cell assay.
The mark [3] stands for this setting: recombinant human mPGES-1 microsomes, PGH2 2 μM, 60 seconds, read-out: mPGES-1 inhibitory effect IC50 in the enzyme assay.
Where [4] appears, read: Table C comparison of selected benzimidazoles, read-out: Cell IC50.
The mark [5] stands for this setting: Table C comparison of selected benzimidazoles, read-out: Enzym IC50.

Where two headings read alike, the source gives them in different places.

Chain of recombinant human mPGES-1 (O14684 whole entry): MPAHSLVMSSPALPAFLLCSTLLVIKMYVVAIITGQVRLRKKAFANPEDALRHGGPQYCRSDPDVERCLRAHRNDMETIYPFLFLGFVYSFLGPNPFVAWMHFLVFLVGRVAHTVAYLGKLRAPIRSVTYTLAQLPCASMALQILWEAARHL
Chain of mPGES-1 in A549 cells (O14684 whole entry): as above

As a reminder, the IC50 is the concentration needed to halve the response being measured. As to `Cn1c(Nc2c(Cl)ccc(CNC(=O)C(C)(C)C)c2Cl)nc2cc(C(=O)Nc3ccc(F)c(Cl)c3)c(N3CCC(F)CC3)cc21` [Example 1, N-(4-Fluoro-3-chloro-phenyl)-2-{2,6-dichloro-3-[(2,2-dimethyl-propionylamino)-methyl]-phenylamino}-6-(4-fluoro-piperidinyl)-1-methyl-1H-benzimidazole-5-carboxylic acid amide], the IC50 on mPGES-1 in A549 cells (setting [2]) came to 1 nM; in test [1] (setting [3]), 2 nM.

`CN(CC(F)F)c1cc2c(cc1C(=O)Nc1ccc(F)c(Cl)c1)nc(Nc1c(Cl)ccc(CNC(=O)C(C)(C)C)c1Cl)n2C` [Example 2, N-(4-Fluoro-3-chloro-phenyl)-2-{2,6-dichloro-3-[(2,2-dimethyl-propionylamino)-methyl]-phenylamino}-6-[N-methyl-N-(2,2-difluoroethyl)-amino]-1-methyl-1H-benzimidazole-5-carboxylic acid amide]: the IC50 on mPGES-1 in A549 cells (setting [2]) is under 1 nM; at mPGES-1 in A549 cells (setting [4]) it was under 1 nM; in test [1] (setting [5]), 2 nM; in test [1] (setting [3]), 2 nM.

As for `Cn1c(Nc2c(Cl)ccc(CNC(=O)C(C)(C)C)c2Cl)nc2cc(C(=O)N[C@H]3CC[C@H](C(F)(F)F)CC3)c(NC3CC(F)(F)C3)cc21` [Example 4, N-(trans-4-Trifluoromethyl-cyclohexyl)-2-{2,6-dichloro-3-[(2,2-dimethyl-propionylamino)-methyl]-phenylamino}-6-[3,3-difluoro-cyclobutylamino]-1-methyl-1H-benzimidazole-5-carboxylic acid amide], the results for the IC50 (on mPGES-1 in A549 cells (setting [2]); in test [1] (setting [3])) were 20 nM and 5 nM, respectively.

For `CC(C)(C)C(=O)NCc1ccc(F)c(Nc2nc3cc(C(=O)N[C@H]4CC[C@H](C(F)(F)F)CC4)c(N4CCC(F)CC4)cc3[nH]2)c1F` [Example 5, N-(trans-4-Trifluoromethyl-cyclohexyl)-2-{2,6-difluoro-3[(2,2-dimethyl-propionylamino)-methyl]-phenylamino}-6-[4-fluoro-piperidinyl]-1H-benzimidazole-5-carboxylic acid amide], the values for the IC50 (at mPGES-1 in A549 cells (setting [2]); in test [1] (setting [3])) were 39 nM and 2 nM, respectively.

As to `Cn1c(Nc2c(Cl)ccc(CNC(=O)C(C)(C)C)c2Cl)nc2cc(C(=O)NCC(F)(F)F)c(N3CCC(F)CC3)cc21` [Example 10], the 50% inhibitory concentration (IC50) at mPGES-1 in A549 cells (setting [2]) amounted to 1 nM; in test [1] (setting [3]) it was 2 nM.

On to `CC(C)(C)C(=O)NCc1ccc(Cl)c(Nc2nc3cc(C(=O)NCC(F)(F)F)c(N4CCC(F)CC4)cc3[nH]2)c1Cl` [Example 11], for which the IC50 (on mPGES-1 in A549 cells (setting [2]); in test [1] (setting [3])) was 3 nM each time.

On to `Cn1c(Nc2c(F)ccc(CNC(=O)C(C)(C)C)c2F)nc2cc(C(=O)N[C@H]3CC[C@H](C(F)(F)F)CC3)c(N3CCC(F)CC3)cc21` [Example 12], for which the IC50 (on mPGES-1 in A549 cells (setting [2]); in test [1] (setting [3])) was 3 nM throughout.

In the case of `Cn1c(Nc2c(Cl)ccc(CNC(=O)C(C)(C)C)c2Cl)nc2cc(C(=O)NC3CC(F)(F)C3)c(N3CCC(C(F)(F)F)CC3)cc21` [Example 14], the IC50 at mPGES-1 in A549 cells (setting [2]) was under 1 nM; in test [1] (setting [3]), 1 nM.

In the case of `Cn1c(Nc2c(Cl)ccc(CNC(=O)C(C)(C)C)c2Cl)nc2cc(C(=O)Nc3ccc(F)c(Cl)c3)c(NC3CC(F)(F)C3)cc21` [Example 15], the results for the IC50 (on mPGES-1 in A549 cells (setting [2]); in test [1] (setting [3])) were 23 nM and 4 nM, respectively.

In the case of `Cn1c(Nc2c(Cl)ccc(CNC(=O)C(C)(C)C)c2Cl)nc2cc(C(=O)Nc3ccc(F)c(Cl)c3)c(NCC(F)F)cc21` [Example 17], the IC50 stood at 6 nM on mPGES-1 in A549 cells (setting [2]), 6 nM on mPGES-1 in A549 cells (setting [4]), 3 nM in test [1] (setting [5]) and 3 nM in test [1] (setting [3]).

Turning to `Cn1c(Nc2c(Cl)ccc(CNC(=O)C(C)(C)C)c2Cl)nc2cc(C(=O)N[C@H]3CC[C@H](C(F)(F)F)CC3)c(N3CC[C@H](F)C3)cc21` [Example 18], the IC50 at mPGES-1 in A549 cells (setting [2]) is 4 nM; in test [1] (setting [3]) it was 3 nM.

Turning to `Cn1c(Nc2c(Cl)ccc(CNC(=O)C(C)(C)C)c2Cl)nc2cc(C(=O)N[C@H]3CC[C@H](C(F)(F)F)CC3)c(N3CC[C@@H](F)C3)cc21` [Example 19], the figures for the IC50 (on mPGES-1 in A549 cells (setting [2]); in test [1] (setting [3])) were 1 nM and 3 nM, respectively.

On to `Cn1c(Nc2c(Cl)ccc(CNC(=O)C(C)(C)C)c2Cl)nc2cc(C(=O)N[C@H]3CC[C@H](C(F)(F)F)CC3)c(N3CC(F)(F)C3)cc21` [Example 21], for which the IC50 on mPGES-1 in A549 cells (setting [2]) was determined as 2.5 nM; in test [1] (setting [3]) it was 4 nM.

On to `Cn1c(Nc2c(Cl)ccc(CNC(=O)C(C)(C)C)c2Cl)nc2cc(C(=O)N[C@H]3CC[C@H](C(F)(F)F)CC3)c(N3CC4CC4C3)cc21` (stereo partly drawn) [Example 22], for which the IC50 at mPGES-1 in A549 cells (setting [2]) came out at 1.5 nM; in test [1] (setting [3]), 5 nM.

Regarding `CN(c1cc2c(cc1C(=O)NCC(F)(F)F)nc(Nc1c(Cl)ccc(CNC(=O)C(C)(C)C)c1Cl)n2C)C1CC1` [Example 23], the figures for the IC50 (on mPGES-1 in A549 cells (setting [2]); in test [1] (setting [3])) were 1 nM and 4 nM, respectively.

As for `Cn1c(Nc2c(Cl)ccc(CNC(=O)C(C)(C)C)c2Cl)nc2cc(C(=O)N[C@H]3CC[C@H](C(F)(F)F)CC3)c(N3CCn4cncc4C3)cc21` [Example 24], the IC50 at mPGES-1 in A549 cells (setting [2]) was determined as 44 nM; in test [1] (setting [3]) it was 5 nM.

For `CN1CCN(c2cc3c(cc2C(=O)N[C@H]2CC[C@H](C(F)(F)F)CC2)nc(Nc2c(Cl)ccc(CNC(=O)C(C)(C)C)c2Cl)n3C)CC1=O` [Example 25], the IC50 came to 12 nM at mPGES-1 in A549 cells (setting [2]) and 4 nM in test [1] (setting [3]).

For `Cn1c(Nc2c(Cl)ccc(CNC(=O)C(C)(C)C)c2Cl)nc2cc(C(=O)N[C@H]3CC[C@H](C(F)(F)F)CC3)c(N3CC4CCC3C4)cc21` (stereo partly drawn) [Example 127], the IC50 in test [1] (setting [3]) came to 2 nM.

`CC(C)(O)Cn1c(Nc2c(Cl)ccc(CNC(=O)C(C)(C)C)c2Cl)nc2cc(C(=O)N[C@H]3CC[C@H](C(F)(F)F)CC3)c(N3CCOCC3)cc21` [Example 168]: the IC50 in test [1] (setting [3]) was 3 nM.

`CC(C)(C)C(=O)NCc1ccc(Cl)c(Nc2nc3cc(C(=O)Nc4ccc(OC(F)(F)F)cc4)c(N4CCOCC4)cc3n2CCC(N)=O)c1Cl` [Example 268]: at mPGES-1 in A549 cells (setting [2]), the IC50 was found to be 6.5 nM.

For the molecule `CC(C)(F)C(=O)NCc1ccc(Cl)c(Nc2nc3cc(C(=O)NCCC(F)(F)F)c(N4CCC(C(F)(F)F)CC4)cc3n2C(C)(C)CO)c1Cl` [Example 269], the IC50 on mPGES-1 in A549 cells (setting [2]) is 55 nM.
